Experimental data reported in PMC9145754, “Novel Soloxolone Amides as Potent Anti-Glioblastoma Candidates: Design, Synthesis, In Silico Analysis and Biological Activities In Vitro and In Vivo” (Pharmaceuticals, 2022).

How the values were obtained:
B16 cells = test: MTT cytotoxicity assay, B16; type: cell-based, murine; conditions: Mus musculus, 24 h, read-out: IC50, Melanoma, B16
Procedure: (§1) In the first step of the study, we analyzed the cytotoxicity of novel soloxolone derivatives 1–12 in a panel of tumor cells, including human cervical carcinoma HeLa, human duodenal carcinoma HuTu-80 and murine melanoma B16 cells, as well as human non-transformed hFF3 foreskin fibroblasts. The cells were treated with derivatives for 24 h and cell viability was evaluated by 3-(4,5-dimethylthiazol-2-yl)-2,5-diphenyltetrazolium bromide (MTT) assay. SM was used as the reference compound.
(§2) The cells in the exponential growth phase were seeded in quadruplicate in 96-well plates at a density of 1 × 10^4 cells/well for HeLa, U87, U118, KELLY and Neuro2a cells; 1.5 × 10^4 cells/well for HuTu-80 cells; 2 × 10^4 cells/well for B16 cells; and 7 × 10^3 cells/well for hFF3 fibroblasts. Cells were incubated under standard conditions overnight followed by their treatment with the investigated compounds (1–20 µM) for 24 h. Then, 10 µL of MTT solution was added to the cells to a final concentration of 0.5 mg/mL and plates were placed under standard conditions for 3 h followed by an aspiration of MTT-containing medium and a dissolution of formazan crystals with 100 µL of DMSO. The absorbance of each well was read at test and reference wavelengths of 570 and 620 nm, respectively, on a Multiscan RC plate reader (Thermo LabSystems, Helsinki, Finland).

[1] = tested on: hFF3 foreskin fibroblasts; test: MTT cytotoxicity assay, hFF3 fibroblasts; type: cell-based, human; conditions: Homo sapiens, HFF-3, 24 h
Procedure: as §1, §2

U118 glioblastoma cells = test: Annexin V-APC/PI apoptosis assay, U118; type: cell-based, human; conditions: for apoptosis, % of U118 cells: 12 at 4 µM
Procedure: To quantify the percentage of cells undergoing apoptosis, glioblastoma U87 and U118 cells were seeded in 6-well plates at 2.8 × 10^5 cells/well in complete growth medium and incubated at standard conditions overnight followed by treatment with 12 at 4 µM for 24 h. Thereafter, the cells were harvested by trypsinization (TrypLE Express (Gibco, USA)) and centrifugation at 400 g for 5 min, washed with PBS and stained with 5 µL of Annexin V-APC (Sony Biotechnology Inc., San Jose, CA, USA) and 10 µL of propidium iodide (PI) (Invitrogen, Waltham, MA, USA) for 15 min at room temperature in the dark. After the incubation time, the cells were analyzed using a NovoCyte Flow Cytometer (ACEA Biosciences Inc., San Diego, CA, USA). For each sample, 10,000 events were acquired.

caspase-3 and -7 = test: Caspase-3/-7 activation (CellEvent reagent, flow cytometry); type: cell-based, human; conditions: U87 cells
Procedure: To double check the pro-apoptotic activity of 12, its effect on the activation of executioner caspase-3 and -7, key markers of apoptosis, was evaluated in glioblastoma U87 cells.
U87 cells were plated at a density of 2.8 × 10^5 cells/well in 6-well plates and treated with 12 at 2 and 4 μM for 6 and 24 h. Then, the cells were collected by trypsinization and centrifugation, washed with PBS and stained with CellEvent™ Caspase-3/7 Green ReadyProbes™ Reagent (Molecular Probes, Eugene, OR, USA) according to the manufacturer’s manual. Briefly, harvested cells were resuspended in 200 μL of PBS containing the reagent (1 drop/mL) and incubated for 30 min at room temperature. After that, flow cytometry analysis of the cells was performed using the NovoCyte Flow Cytometer. In total, 10,000 events were acquired for each sample.

U118 cells [2] = test: Mitochondrial membrane potential, JC-1; type: cell-based, human; conditions: for percentage of U118 cells with collapsed ΔψM: 12 at 4 µM, JC-1, control 4.7%
Procedure: It is known that structural analogs of compound 12, such as SM, bardoxolone methyl and CDDO-Im, trigger the mitochondrial pathway of apoptosis in tumor cells, leading to significant dissipation of mitochondrial membrane potential (ΔψM). To evaluate the ability of 12 to affect ΔψM in glioblastoma cells, U118 cells were incubated with 12 (4 µM) for 6 and 24 h and stained with JC-1, a fluorescent probe accumulated either within highly polarized mitochondria emitting red fluorescence (JC-1 aggregates) or in cytoplasm, in the case of low ΔψM (JC-1 monomers, green fluorescence).
[…] were cultured in 6-well plates for 24 h, incubated overnight under standard conditions and treated with 12 at 4 μM for 6 and 24 h. Thereafter, the cells were harvested, resuspended at 10^6 cell/mL in JC-1-containing PBS (5 µg/mL) and incubated under standard conditions for 30 min followed by the washing of the cells with PBS and flow cytometry analysis. In total, 10,000 events were acquired for each sample.

U87 cells [3] = test: Mitochondrial membrane potential/apoptosis, MitoTracker Red and Annexin V; type: cell-based, human; conditions: U87, 12 at 4 µM, control 5.7%
Procedure: In order to doublecheck the ΔψM-targeted effect of 12 and to assess the correlation between dissipation of ΔψM and induction of apoptosis in triterpenoid-treated glioblastoma cells, U87 cells were incubated with 12 at 4 µM for 6–24 h followed by their staining with a mix of MitoTracker Red, a fluorescent dye accumulated within mitochondria depending on their ΔψM, and fluorophore-conjugated annexin V, used to visualize apoptotic cells.
[…] cells plated in 6-well plates were treated with 12 at 4 μM for 6, 18 and 24 h and stained using a Mitochondrial Membrane Potential/Annexin V Apoptsis Kit (Molecular Probes, USA) according to the manufacturer’s instructions. Briefly, harvested cells were incubated in Annexin-binding buffer containing MitoTracker Red at 40 nM for 30 min under standard conditions. After that, the cells were washed with PBS, resuspended in Annexin-binding buffer containing 5 µL of Annexin V-Alexa Fluor 488 and incubated at room temperature for 15 min. After the incubation time, the cells were analyzed by flow cytometry. For each sample, 10,000 events were acquired.

U87 cells [4] = test: Colony formation assay, U87; type: cell-based, human; conditions: for decrease of surface area covered by cell colonies compared to the control: 14 days
U118 cells [5] = test: Scratch assay (2D migration); type: cell-based, human; conditions: U118, 12 at 100 nM, 48 h
Procedure: To evaluate the ability of tryptamide 12 to suppress the migration potential of glioblastoma cells, two independent approaches were undertaken, including assessment of cell movement on a 2D surface (scratch assay) and through a trans-well membrane (CIM-Plate).
To assess the 2D motility of glioblastoma cells, U118 cells were seeded in triplicate in 6-well plates at a density of 8 × 10^5 cells/well and cultured to 80% confluence. Thereafter, the cell monolayers were scratched with 10 µL pipette tips and washed twice with PBS to remove floating cells and cell debris and treated with 12 at 100 nM for 48 h. At 0 h and 48 h, the scratched cell monolayers were imaged using a Primo Vert microscope with phase contrast optics (ZEISS, Oberkochen, Germany) equipped with a AxioCam ERc5s camera (ZEISS, Oberkochen, Germany). The wound closure rate was calculated using ImageJ software. In total, 4–5 regions on a single scratch were analyzed.

CC1(C)C(=O)C(C#N)=C[C@]2(C)C3=CC(=O)[C@@H]4[C@@H]5C[C@@](C)(C(=O)NCCc6c[nH]c7ccccc67)CC[C@]5(C)CC[C@@]4(C)[C@]3(C)CC[C@@H]12 [compound 12]
IC50 (B16 cells): 1.5 ± 0.2 µM
IC50 [1]: 1.4 ± 0.2 µM
apoptosis, % of U118 cells (U118 glioblastoma cells; 6 h): 11.7%
apoptosis, % of U118 cells (U118 glioblastoma cells; 18 h): 34.4%
apoptosis, % of U118 cells (U118 glioblastoma cells; 24 h): 41.5%
number of necrotic cells (U118 glioblastoma cells; U118, different samples (2 and 4 µM; 6–24 h)): ≤ 10%
activation of caspase-3 and -7 (caspase-3 and -7): effectively activated caspase-3 and -7 in a time-dependent manner
percentage of U118 cells with collapsed ΔψM (U118 cells [2]; 6 h): 7.5%
percentage of U118 cells with collapsed ΔψM (U118 cells [2]; 24 h): 20.4%
JC-1 aggregate/monomer ratios (U118 cells [2]; U118, 12 at 4 µM): significantly reduced
percentage of apoptotic cells with dissipated ΔψM (U87 cells [3]; 6 h): 12.2%
percentage of apoptotic cells with dissipated ΔψM (U87 cells [3]; 18 h): 18.7%
percentage of apoptotic cells with dissipated ΔψM (U87 cells [3]; 24 h): 28%
decrease of surface area covered by cell colonies compared to the control (U87 cells [4]; U87, 12 at 200 nM): 2.1 fold
decrease of surface area covered by cell colonies compared to the control (U87 cells [4]; U87, 12 at 500 nM): 2.4 fold
inhibitory effect on clonogenic growth (U87 cells [4]; U87, 12 at 50 and 100 nM): statistically insignificant
inhibition of 2D migration compared to the control (U118 cells [5]): two times
